US20100273740A1 (priority 2004, published 2010)
Converted amounts (≈) assume the structure as drawn.

Experiments:
SARS-CoV = conditions: cited from earlier work
[1] = Cell viability of uninfected human foreskin fibroblast drug control wells; assay type: cell-based; conditions: uninfected human foreskin fibroblast cells; read-out: Cytotoxic Conc. (IC50) Cell Growth
[2] = system: Urbani strain of SARS CoV; test: organism not typed; assay type: cell-based; conditions: Vero, read-out: Effective Conc. (EC50) Against SARS CoV
Vero cells = test: cells; assay type: cell-based; conditions: Chlorocebus sabaeus, read-out: Inhibitory Conc. (IC50) Cell Growth
SARS = conditions: cited from earlier work
[3] = cited from earlier work

## interferon beta
SARS-CoV
  Activity in vitro against SARS-CoV: effective in vitro against SARS-CoV

## CCCCCCCCCCOC(CNC(=O)CCCCCCCCC)COP(=O)([O-])OCC[N+](C)(C)C (stereo not shown) [NHCOC9H19 OC9H18CH3 PC, 3-decanamido-2-decyloxypropyl-1-phosphocholine]
[1]
  IC50: 75 µg/mL (≈ 136 µM)

## CCCCCCCCCCCC(=O)NCC(COP(=O)([O-])OCC[N+](C)(C)C)OCCCC (stereo not shown) [NHCOC11H23 OC3H6CH3 PC, 3-dodecanamido-2-butyloxypropyl-1-phosphocholine]
[2]
  EC50: 3 µg/mL (≈ 6.06 µM)
Vero cells
  IC50: 40 µg/mL (≈ 80.9 µM)

## NC(=O)c1ncn([C@@H]2O[C@H](CO)[C@@H](O)[C@H]2O)n1 [Ribavirin, 1-β-D-ribofuranosyl-1-1,2,4-triazole-3-carboxamide]
SARS
  Benefit in SARS patients: has not been observed to be of benefit
[3]
  Patients with serum amino transferase levels reduced to normal: 40%
[3]; patients
  Effect on viral serum levels: does not lower viral serum levels
